Test results published in publication PMC3431023 (Journal of medicinal chemistry, 2012).

How the values were obtained:
nAChR [1] = format: in vivo; conditions: mouse, s.c., tested 5 min after injection; (confidence limits)
nAChR [2] = format: in vivo; conditions: mouse, s.c., tested 5 min after injection
α3β4-nAChR = α3β4-nAChR (Rattus norvegicus, UniProt P04757+P12392); format: cell-based; conditions: 100 µM compound, rat α3β4 in Xenopus oocytes
human α4β2-nAChRs = conditions: competitive antagonist of human α4β2-nAChRs; cited from earlier work
[3] = test system: discriminative stimulus effects of nicotine; conditions: rodents; cited from earlier work
[4] = test system: nicotine's ability to facilitate ICSS; conditions: rodents; cited from earlier work
CPP produced by nicotine = conditions: rodents; cited from earlier work
[5] = test system: nicotine self-administration; conditions: rodents; cited from earlier work
nAChR [6] = format: in vivo; conditions: mouse, s.c., 30 min
nAChR [7] = format: in vivo; conditions: mouse, s.c.
nAChR [8] = assay: Antagonism of nicotine-induced antinociception, hot-plate test; format: in vivo; conditions: mouse
α4β2-nAChR [9] = biological target: T1, α4β2-nAChR (Rattus norvegicus, UniProt P09483+P12390); format: cell-based
Target sequence in this assay (P09483 31-630): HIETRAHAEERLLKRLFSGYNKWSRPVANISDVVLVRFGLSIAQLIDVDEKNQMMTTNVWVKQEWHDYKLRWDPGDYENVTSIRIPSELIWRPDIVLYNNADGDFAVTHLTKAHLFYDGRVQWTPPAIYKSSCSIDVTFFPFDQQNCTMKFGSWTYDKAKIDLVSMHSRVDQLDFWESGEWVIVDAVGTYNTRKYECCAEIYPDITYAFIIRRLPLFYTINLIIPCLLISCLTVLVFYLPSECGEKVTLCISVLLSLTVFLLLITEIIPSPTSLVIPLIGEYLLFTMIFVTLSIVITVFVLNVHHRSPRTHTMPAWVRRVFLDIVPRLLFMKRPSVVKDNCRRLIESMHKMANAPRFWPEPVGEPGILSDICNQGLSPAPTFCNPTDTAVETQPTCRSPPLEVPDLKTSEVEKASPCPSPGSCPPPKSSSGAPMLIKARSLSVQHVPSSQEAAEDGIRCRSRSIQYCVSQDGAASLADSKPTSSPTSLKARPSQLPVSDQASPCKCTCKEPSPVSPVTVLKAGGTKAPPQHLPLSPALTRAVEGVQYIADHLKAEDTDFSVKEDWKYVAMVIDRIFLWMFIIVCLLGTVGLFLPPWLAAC
Target sequence in this assay (P12390 25-500): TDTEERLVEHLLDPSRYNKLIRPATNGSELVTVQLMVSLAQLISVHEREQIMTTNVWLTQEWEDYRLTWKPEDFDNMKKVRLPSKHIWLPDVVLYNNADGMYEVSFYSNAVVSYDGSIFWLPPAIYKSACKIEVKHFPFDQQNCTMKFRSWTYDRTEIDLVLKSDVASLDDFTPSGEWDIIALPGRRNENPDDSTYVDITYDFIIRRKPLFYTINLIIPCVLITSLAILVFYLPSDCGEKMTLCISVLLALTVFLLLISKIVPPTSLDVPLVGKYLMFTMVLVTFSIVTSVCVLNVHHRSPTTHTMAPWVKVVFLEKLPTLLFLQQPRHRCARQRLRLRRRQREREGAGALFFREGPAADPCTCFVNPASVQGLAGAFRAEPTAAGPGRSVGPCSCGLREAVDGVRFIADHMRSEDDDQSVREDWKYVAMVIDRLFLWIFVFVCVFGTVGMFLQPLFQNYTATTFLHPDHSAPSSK

α4β2-nAChR [10] = biological target: T1, α4β2-nAChR; format: binding; conditions: Ki ratio
Target sequence in this assay (P12390 25-500): as above
Target sequence in this assay (P09483 31-630): as the sequence (P09483 31-630) above

α4β2 = conditions: read-out: Antagonist Activity IC50 α4β2; cited from earlier work

Sequence of α3β4-nAChR (P04757 26-499): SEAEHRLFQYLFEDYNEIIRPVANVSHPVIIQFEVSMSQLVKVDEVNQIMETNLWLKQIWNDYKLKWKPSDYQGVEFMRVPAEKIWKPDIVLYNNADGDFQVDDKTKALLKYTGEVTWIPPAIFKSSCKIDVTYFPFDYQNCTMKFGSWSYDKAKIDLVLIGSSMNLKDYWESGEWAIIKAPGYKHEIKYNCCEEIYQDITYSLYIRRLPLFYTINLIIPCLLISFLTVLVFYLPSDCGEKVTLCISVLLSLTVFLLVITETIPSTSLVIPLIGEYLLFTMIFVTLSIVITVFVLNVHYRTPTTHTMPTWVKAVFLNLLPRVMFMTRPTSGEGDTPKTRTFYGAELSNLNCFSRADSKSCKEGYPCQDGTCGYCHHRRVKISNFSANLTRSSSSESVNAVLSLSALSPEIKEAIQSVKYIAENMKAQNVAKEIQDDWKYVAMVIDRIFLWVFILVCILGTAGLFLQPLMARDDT
Sequence of α3β4-nAChR (P12392 21-495): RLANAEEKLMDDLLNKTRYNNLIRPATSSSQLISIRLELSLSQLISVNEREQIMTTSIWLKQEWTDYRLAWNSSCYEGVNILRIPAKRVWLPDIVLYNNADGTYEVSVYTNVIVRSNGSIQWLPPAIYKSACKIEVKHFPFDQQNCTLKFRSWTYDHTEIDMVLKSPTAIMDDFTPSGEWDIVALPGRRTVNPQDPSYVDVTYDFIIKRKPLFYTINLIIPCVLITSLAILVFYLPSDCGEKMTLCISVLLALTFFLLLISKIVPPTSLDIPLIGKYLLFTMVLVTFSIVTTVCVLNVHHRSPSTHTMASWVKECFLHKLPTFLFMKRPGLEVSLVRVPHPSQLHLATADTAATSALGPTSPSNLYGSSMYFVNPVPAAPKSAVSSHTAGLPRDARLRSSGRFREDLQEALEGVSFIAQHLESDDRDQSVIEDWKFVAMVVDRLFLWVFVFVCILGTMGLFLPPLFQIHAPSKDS

With `O=[N+]([O-])c1ccc(-c2cc(C3CC4CCC3N4)cnc2F)cc1` (stereo not drawn) [Compound 5a, 2'-fluoro-3'-(4-nitrophenyl)deschloroepibatidine] as the compound, how does the “ED50 Tail-Flick” value (nAChR [1]) read?
Its value is “no functional activity”.

And the “ED50 Hot-Plate” value (nAChR [2])?
Its value is “no functional activity”.

What about the “Agonist Activity (% of max ACh at 100 µM of Compd) α3β4” value (α3β4-nAChR) of the same compound?
Its value is “low level of agonist activity”.

And the “potency higher than that of dihydro-β-erythroidine (6)” value (human α4β2-nAChRs)?
Its value is 17 fold.

And the “effect on discriminative stimulus effects of nicotine” value [3]?
Its value is “attenuated”.

What about the “effect on nicotine's ability to facilitate ICSS” value [4] of the same compound?
The value was “reduced”.

And the “effect on CPP produced by nicotine” value (CPP produced by nicotine)?
Its value is “blocked”.

And the “effect on i.v. nicotine self-administration” value [5]?
The value was “dose-dependently blocked”.

For `Fc1ncc(C2CC3CCC2N3)cc1-c1ccc(C(F)(F)F)cc1` (stereo not drawn) [Compound 5b, 2'-Fluoro-3'-(4'-trifluoromethylphenyl)deschloroepibatidine], which “ED50 Hypothermia” value (nAChR [6]) is on record?
The value was “no activity”.

And the “ED50 Spontaneous Activity” value (nAChR [7])?
The value was “no activity”.

What about the “AD50 Hot-Plate” value (nAChR [8]) of the same compound?
The value was “antagonists in the hot-plate test”.

What about the “selectivity for α4β2- over α3β4-nAChR (antagonist potency)” value (α4β2-nAChR [9]; electrophysiology, IC50 ratio) of the same compound?
The value was “no selectivity”.

What about the “selectivity for α4β2- over α7-nAChR (antagonist potency)” value (α4β2-nAChR [9]; electrophysiology, IC50 ratio) of the same compound?
The value was “no selectivity”.

And the “Agonist Activity (% of max ACh at 100 µM of Compd) α3β4” value (α3β4-nAChR)?
The value was “lacked agonist activity”.

Which results are given for `N#Cc1ccc(-c2cc(C3CC4CCC3N4)cnc2F)cc1` (stereo not drawn) [Compound 5c, 2'-Fluoro-3'-(4-cyanophenyl)deschloroepibatidine]?
ED50 Hypothermia (nAChR [6]): no activity; ED50 Spontaneous Activity (nAChR [7]): no activity; Agonist Activity (% of max ACh at 100 µM of Compd) α3β4 (α3β4-nAChR): low level of agonist activity

Which results are given for `CS(=O)(=O)c1ccc(-c2cc(C3CC4CCC3N4)cnc2F)cc1` (stereo not drawn) [Compound 5d, 2'-Fluoro-3'-(4-methanesulfonylphenyl)deschloroepibatidine]?
ED50 Hypothermia (nAChR [6]): no activity; ED50 Spontaneous Activity (nAChR [7]): no activity; AD50 Hot-Plate (nAChR [8]): antagonists in the hot-plate test

For `NS(=O)(=O)c1ccc(-c2cc(C3CC4CCC3N4)cnc2F)cc1` (stereo not drawn) [Compound 5e, 2'-Fluoro-3'-(4-aminosulfonylphenyl)deschloroepibatidine], which “ED50 Hypothermia” value (nAChR [6]) is on record?
The value was “no activity”.

What about the “ED50 Spontaneous Activity” value (nAChR [7]) of the same compound?
Its value is “no activity”.

Which results are given for `O=S(=O)(c1ccc(-c2cc(C3CC4CCC3N4)cnc2F)cc1)C(F)(F)F` (stereo not drawn) [Compound 5f, 2'-Fluoro-3'-(4-trifluoromethanesulfonylphenyl)deschloroepibatidine]?
ED50 Spontaneous Activity (nAChR [7]): only active in the spontaneous activity test; Agonist Activity (% of max ACh at 100 µM of Compd) α3β4 (α3β4-nAChR): low level of agonist activity

Which “selectivity for α4β2 over α7 in radioligand binding assays” value (α4β2-nAChR [10]) does the source give for `NC(=O)c1ccc(-c2cc(C3CC4CCC3N4)cnc2F)cc1` (stereo not drawn) [Compound 5g, 2'-Fluoro-3'-(4-carbamoylphenyl)deschloroepibatidine] here?
Its value is > 15,000 fold.

And the “ED50 Hypothermia” value (nAChR [6])?
Its value is “only active in the hypothermia and spontaneous activity tests”.

And the “ED50 Spontaneous Activity” value (nAChR [7])?
The value was “only active in the hypothermia and spontaneous activity tests”.

And the “Agonist Activity (% of max ACh at 100 µM of Compd) α4β2” value (α4β2-nAChR [9]; 100 µM compound, rat α4β2 in Xenopus oocytes)?
The value was “low level of agonist activity”.

And the “Agonist Activity (% of max ACh at 100 µM of Compd) α3β4” value (α3β4-nAChR)?
Its value is “low level of agonist activity”.

For `c1cnc2cc3c(cc2n1)[C@@H]1CNC[C@H]3C1` [varenicline], which IC50 (α4β2) is on record?
The IC50 was 200 ± 30 nM.
